Measured values: PMC8536644, “Enigmatic mechanism of the N-vinylpyrrolidone hepatocarcinogenicity in the rat” (Archives of Toxicology, 2021)
Where two headings read alike, the source gives them in different places.

Columns and labels:
[1] = test system: polychromatic erythrocytes of rat bone marrow; experiment: Micronucleus test in rat bone marrow (OECD 474)
Procedure: 13-mm filter disks with a pore size of 8 µm were placed on the bottom of 5-mL plastic syringes. Approximately 500 mg of a mixture consisting of equal parts microcrystalline cellulose (Sigmacell®, Typ 50) and alpha-cellulose fibers was added up to the 2-mL mark.
Bone marrow preparation was performed according to published methods (Romagna and Staniforth [1989]; Salamone et al. [1980]). The soft tissue was removed from the femora and the epiphyses were cut off. The bone marrow was rinsed off the diaphyses with approximately 3 mL 37 °C-warm fetal calf serum (FCS) (Biochrom, Berlin, Germany) per femur, placed on the above-described cellulose column and eluted with 3 mL of Hank's Balanced Salt Solution (HBSS) (Biochrom, Berlin, Germany) (with Ca^2+ und Mg^2+). The eluate was centrifuged at 300 g for 5 min and the pellet was suspended in […] FCS. From this suspension three portions per femur were individually placed on slides, air-dried and then stained for 4 min in May-Grunwald solution 1 (Merck, Darmstadt, Germany), followed by 4 min in May–Grunwald solution 2 (May-Grunwald solution 1 diluted 1:1 with aqua bidest.), rinsed in aqua bidest and then stained with Giemsa solution (7.5% dilution derived from Giemsa obtained from Merck, Darmstadt, Germany) for 15 min. Subsequently, the slides were washed twice with aqua bidest, then dried, cleared in xylene and covered with Corbit-Balsam (I. Hecht, Kiel-Hasse, Germany).
2000 polychromatic erythrocytes (PCE) per animal (1000 per slide) were evaluated at 1000-fold magnification under immersion oil for the presence/absence of large and small micronuclei as well as the proportion of PCE among the total erythrocytes. Statistical significance of differences between treated versus untreated groups was evaluated by the one-sided Wilcoxon test (using the program MUKERN). The result is regarded as positive when the following criteria are fulfilled: 1.
2000 PCEs were analyzed for micronuclei per animal.

[2] = test system: rat liver cells; experiment: Trypan Blue viability of the single cell suspension, liver; format: in vivo; settings: liver, 5 days, individual animals
Procedure: (§1) The organ parts (see above) were washed in mincing buffer (50 mM EDTA in HBSS [without Ca^2+ and Mg^2+] pH 7.5: DMSO 9:1 (v/v), the latter added shortly before use, stored at 4 °C), cut into 1 to 2-mm pieces in ice-cold mincing buffer and transferred to a cell sieve with 70-µm pores. The viability of the cell suspension was evaluated by the Trypan Blue Assay (Strober [2001]).

[3] = as above; format: in vivo, rat; settings: rat, inhaled
Procedure: as §1

[4] = 20 ppm inhalation, 5 days, female
[5] = 20 ppm inhalation, 5 days, male

Question: What does the source list for C=CN1CCCC1=O [NVP, N-vinylpyrrolidone]?
Answer: PCE/1000 Erythrozyten Mean ± SD [1, 4]: 615 ± 48 PCE/1000 Erythrozyten; PCE/NCE quotient (%) [1, 4]: 97%; MN/ 1000 PCE Mean ± SD [1, 5]: 2.0 ± 0.9 MN/ 1000 PCE; MN/ 1000 PCE Range [1, 5]: 0.5–3.0 MN/ 1000 PCE; PCE/1000 Erythrozyten Mean ± SD [1, 5]: 553 ± 57 PCE/1000 Erythrozyten; PCE/NCE quotient (%) [1, 5]: 90%; Micronuclei in normochromatic erythrocytes (NCE) ([1]; after exposure to NVP): no micronuclei were observed; Decrease of the ratio of PCE to NCE ([1]; high-dose (20 ppm) males vs vehicle control): 10%; Individual viability (%) ([2]; female, no FPG, 10 ppm inhalation): 94%; Individual viability (%) ([2]; male, Comet with FPG (Table 8), 10 ppm inhalation): 93%; Individual viability (%) ([2]; male, no FPG, 5 ppm inhalation): 90%; Individual viability (%) ([2]; male, no FPG, 10 ppm inhalation): 94%; viability at 5 days ([3]; both sexes, Wistar Crl:WI (Han), liver and lung single cell suspensions, either of the two organs (liver, lung) after NVP treatment, read-out: Viability (dye exclusion test)): > 90%; viability at 5 days ([3]; both sexes, Wistar Crl:WI (Han), liver single cell suspension, liver cells, NVP-exposed, read-out: Viability, range of the individual animals): 90 to 99%; viability at 5 days ([3]; female, Wistar, liver, 5 ppm, liver, female, Comet with FPG (Table 9), 5 ppm inhalation, 5 days, individual animals, read-out: Individual viability (%)): 99%; viability at 5 days ([3]; female, Wistar, liver, 5 ppm, liver, female, Comet with FPG (Table 9), 5 ppm inhalation, 5 days, read-out: Viability (%) (mean ± SD)): 99 ± 1%; viability at 5 days ([3]; female, Wistar, liver, 5 ppm, liver, female, no FPG, 5 ppm inhalation, 5 days, individual animals, read-out: Individual viability (%)): 98%; viability at 5 days ([3]; female, Wistar, liver, 5 ppm, liver, female, no FPG, 5 ppm inhalation, 5 days, read-out: Viability (%) (mean ± SD)): 97 ± 1%; viability at 5 days ([3]; female, Wistar, liver, 10 ppm, liver, female, Comet with FPG (Table 9), 10 ppm inhalation, 5 days, individual animals, read-out: Individual viability (%)): 98%; viability at 5 days ([3]; female, Wistar, liver, 10 ppm, liver, female, Comet with FPG (Table 9), 10 ppm inhalation, 5 days, read-out: Viability (%) (mean ± SD)): 98 ± 1%; viability at 5 days ([3]; female, Wistar, liver, 10 ppm, liver, female, no FPG, 10 ppm inhalation, 5 days, individual animals, read-out: Individual viability (%)): 96%; viability at 5 days ([3]; female, Wistar, liver, 10 ppm, liver, female, no FPG, 10 ppm inhalation, 5 days, read-out: Viability (%) (mean ± SD)): 96 ± 1%; viability at 5 days ([3]; female, Wistar, liver, 20 ppm, liver, female, Comet with FPG (Table 9), 20 ppm inhalation, 5 days, individual animals, read-out: Individual viability (%)): 98%; viability at 5 days ([3]; female, Wistar, liver, 20 ppm, liver, female, Comet with FPG (Table 9), 20 ppm inhalation, 5 days, read-out: Viability (%) (mean ± SD)): 98 ± 1%; viability at 5 days ([3]; female, Wistar, liver, 20 ppm, liver, female, no FPG, 20 ppm inhalation, 5 days, individual animals, read-out: Individual viability (%)): 96%; viability at 5 days ([3]; female, Wistar, liver, 20 ppm, liver, female, no FPG, 20 ppm inhalation, 5 days, read-out: Viability (%) (mean ± SD)): 97 ± 1%; viability at 5 days ([3]; male, Wistar, liver, 5 ppm, liver, male, Comet with FPG (Table 8), 5 ppm inhalation, 5 days, individual animals, read-out: Individual viability (%)): 97%; viability at 5 days ([3]; male, Wistar, liver, 5 ppm, liver, male, Comet with FPG (Table 8), 5 ppm inhalation, 5 days, read-out: Viability (%) (mean ± SD)): 98 ± 1%; viability at 5 days ([3]; male, Wistar, liver, 5 ppm, liver, male, no FPG, 5 ppm inhalation, 5 days, individual animals, read-out: Individual viability (%)): 92%; viability at 5 days ([3]; male, Wistar, liver, 5 ppm, liver, male, no FPG, 5 ppm inhalation, 5 days, read-out: Viability (%) (mean ± SD)): 95 ± 3%; viability at 5 days ([3]; male, Wistar, liver, 10 ppm, liver, male, Comet with FPG (Table 8), 10 ppm inhalation, 5 days, individual animals, read-out: Individual viability (%)): 99%; viability at 5 days ([3]; male, Wistar, liver, 10 ppm, liver, male, Comet with FPG (Table 8), 10 ppm inhalation, 5 days, read-out: Viability (%) (mean ± SD)): 98 ± 2%; viability at 5 days ([3]; male, Wistar, liver, 10 ppm, liver, male, no FPG, 10 ppm inhalation, 5 days, individual animals, read-out: Individual viability (%)): 96%; viability at 5 days ([3]; male, Wistar, liver, 10 ppm, liver, male, no FPG, 10 ppm inhalation, 5 days, read-out: Viability (%) (mean ± SD)): 96 ± 1%; viability at 5 days ([3]; male, Wistar, liver, 20 ppm, liver, male, Comet with FPG (Table 8), 20 ppm inhalation, 5 days, individual animals, read-out: Individual viability (%)): 100%; viability at 5 days ([3]; male, Wistar, liver, 20 ppm, liver, male, Comet with FPG (Table 8), 20 ppm inhalation, 5 days, read-out: Viability (%) (mean ± SD)): 99 ± 1%; viability at 5 days ([3]; male, Wistar, liver, 20 ppm, liver, male, no FPG, 20 ppm inhalation, 5 days, individual animals, read-out: Individual viability (%)): 98%; viability at 5 days ([3]; male, Wistar, liver, 20 ppm, liver, male, no FPG, 20 ppm inhalation, 5 days, read-out: Viability (%) (mean ± SD)): 97 ± 1%
